{
  "source": "patent US3940382A",
  "about": "“1,2'-Di-N-substituted kanamycin B compounds” (Zaidan Hojin Biseibutsu Kagaku Kenkyu Kai, priority 1973, dated 1976)",
  "key": {"[1]": {"system": "Bacillus subtilis NRRL B-558", "assay": "MIC, serial dilution on nutrient agar", "assay_type": "cell-based", "conditions": "NRRLB558; Bacillus subtilis NRRL B-558; nutrient agar, 37°C, 18 hours; read-out: Minimum Inhibitory Concentrations"}, "[2]": {"system": "Escherichia coli K-12 ML 1629", "assay": "MIC, serial dilution on nutrient agar", "assay_type": "cell-based", "conditions": "Escherichia coli, K12ML1629, 18 h, read-out: Minimum Inhibitory Concentrations"}, "[3]": {"system": "Pseudomonas aeruginosa No.12", "assay": "MIC, serial dilution on nutrient agar", "assay_type": "cell-based", "conditions": "Pseudomonas aeruginosa No.12; nutrient agar, 37°C, 18 hours; read-out: Minimum Inhibitory Concentrations"}, "[4]": {"system": "Escherichia coli W677", "assay": "MIC, serial dilution on nutrient agar", "assay_type": "cell-based", "conditions": "Escherichia coli W677; nutrient agar, 37°C, 18 hours; read-out: Minimum Inhibitory Concentrations"}, "[5]": {"system": "Escherichia coli LA290 R56", "assay": "MIC, serial dilution on nutrient agar", "assay_type": "cell-based", "conditions": "LA290R56, 18 h, read-out: Minimum Inhibitory Concentrations"}, "[6]": {"system": "Bacillus cereus ATCC 10702", "assay": "MIC, serial dilution on nutrient agar", "assay_type": "cell-based", "conditions": "Bacillus cereus, ATCC10702, 18 h, read-out: Minimum Inhibitory Concentrations"}, "[7]": {"system": "Pseudomonas aeruginosa A3", "assay": "MIC, serial dilution on nutrient agar", "assay_type": "cell-based", "conditions": "Pseudomonas aeruginosa, A3, 18 h, read-out: Minimum Inhibitory Concentrations"}, "[8]": {"system": "Corynebacterium bovis 1810", "assay": "MIC, serial dilution on nutrient agar", "assay_type": "cell-based", "conditions": "Corynebacterium bovis, 1810, 18 h, read-out: Minimum Inhibitory Concentrations"}, "[9]": {"system": "Escherichia coli LA290 R55", "assay": "MIC, serial dilution on nutrient agar", "assay_type": "cell-based", "conditions": "LA290R55, 18 h, read-out: Minimum Inhibitory Concentrations"}, "[10]": {"system": "Klebsiella pneumoniae PCI 602", "assay": "MIC, serial dilution on nutrient agar", "assay_type": "cell-based", "conditions": "Klebsiella pneumoniae, PCI602, 18 h, read-out: Minimum Inhibitory Concentrations"}, "[11]": {"system": "Sarcina lutea PCI 1001", "assay": "MIC, serial dilution on nutrient agar", "assay_type": "cell-based", "conditions": "Micrococcus luteus, PCI1001, 18 h, read-out: Minimum Inhibitory Concentrations"}, "[12]": {"system": "Pseudomonas aeruginosa 99", "assay": "MIC, serial dilution on nutrient agar", "assay_type": "cell-based", "conditions": "Pseudomonas aeruginosa 99; nutrient agar, 37°C, 18 hours; read-out: Minimum Inhibitory Concentrations"}, "[13]": {"system": "Escherichia coli NIHJ", "assay": "MIC, serial dilution on nutrient agar", "assay_type": "cell-based", "conditions": "Escherichia coli, 18 h, read-out: Minimum Inhibitory Concentrations"}, "[14]": {"system": "Staphylococcus aureus Terejima", "assay": "MIC, serial dilution on nutrient agar", "assay_type": "cell-based", "conditions": "Staphylococcus aureus Terejima; nutrient agar, 37°C, 18 hours; read-out: Minimum Inhibitory Concentrations"}, "[15]": {"system": "Shigella dysenteriae JS 11910", "assay": "MIC, serial dilution on nutrient agar", "assay_type": "cell-based", "conditions": "JS11910, 18 h, read-out: Minimum Inhibitory Concentrations"}, "[16]": {"system": "Escherichia coli LA290 R64", "assay": "MIC, serial dilution on nutrient agar", "assay_type": "cell-based", "conditions": "LA290R64, 18 h, read-out: Minimum Inhibitory Concentrations"}, "[17]": {"system": "Salmonella typhosa T-63", "assay": "MIC, serial dilution on nutrient agar", "assay_type": "cell-based", "conditions": "Salmonella enterica, 18 h, read-out: Minimum Inhibitory Concentrations"}, "[18]": {"system": "Escherichia coli K-12 ML 1410", "assay": "MIC, serial dilution on nutrient agar", "assay_type": "cell-based", "conditions": "Escherichia coli, K12ML1410, 18 h, read-out: Minimum Inhibitory Concentrations"}, "[19]": {"system": "Staphylococcus aureus Smith", "assay": "MIC, serial dilution on nutrient agar", "assay_type": "cell-based", "conditions": "Staphylococcus aureus Smith; nutrient agar, 37°C, 18 hours; read-out: Minimum Inhibitory Concentrations"}, "[20]": {"system": "Staphylococcus aureus FDA 209P", "assay": "MIC, serial dilution on nutrient agar", "assay_type": "cell-based", "conditions": "Staphylococcus aureus, FDA209P, 18 h, read-out: Minimum Inhibitory Concentrations"}, "[21]": {"system": "Escherichia coli K-12", "assay": "MIC, serial dilution on nutrient agar", "assay_type": "cell-based", "conditions": "Escherichia coli, K12, 18 h, read-out: Minimum Inhibitory Concentrations"}, "[22]": {"system": "Escherichia coli K-12 ML 1410 R81", "assay": "MIC, serial dilution on nutrient agar", "assay_type": "cell-based", "conditions": "18 h, read-out: Minimum Inhibitory Concentrations"}, "[23]": {"system": "Mycobacterium smegmatis ATCC 607", "assay": "MIC, serial dilution on nutrient agar", "assay_type": "cell-based", "conditions": "Mycolicibacterium smegmatis, ATCC607; Mycobacterium smegmatis ATCC 607; nutrient agar, 37°C, 18 hours; read-out: Minimum Inhibitory Concentrations"}, "[24]": {"system": "Salmonella enteritidis 1891", "assay": "MIC, serial dilution on nutrient agar", "assay_type": "cell-based", "conditions": "Salmonella enterica, ENTERITIDIS, 18 h, read-out: Minimum Inhibitory Concentrations"}, "[25]": {"system": "Bacillus anthracis", "assay": "microbe, parasite or virus in culture", "assay_type": "cell-based", "conditions": "18 h, read-out: Minimum Inhibitory Concentrations"}, "[26]": {"system": "Proteus vulgaris OX 19", "assay": "MIC, serial dilution on nutrient agar", "assay_type": "cell-based", "conditions": "Proteus vulgaris, OX19, 18 h, read-out: Minimum Inhibitory Concentrations"}, "[27]": {"system": "Pseudomonas aeruginosa GN315", "assay": "MIC, serial dilution on nutrient agar", "assay_type": "cell-based", "conditions": "Pseudomonas aeruginosa GN315; nutrient agar, 37°C, 18 hours; read-out: Minimum Inhibitory Concentrations"}, "[28]": {"system": "Klebsiella pneumoniae 22 -3038", "assay": "MIC, serial dilution on nutrient agar", "assay_type": "cell-based", "conditions": "Klebsiella pneumoniae, 223038, 18 h, read-out: Minimum Inhibitory Concentrations"}, "[29]": {"system": "Pseudomonas aeruginosa TI-13", "assay": "MIC, serial dilution on nutrient agar", "assay_type": "cell-based", "conditions": "TI13; Pseudomonas aeruginosa TI-13; nutrient agar, 37°C, 18 hours; read-out: Minimum Inhibitory Concentrations"}, "[30]": {"system": "Bacillus subtilis PCI 219", "assay": "MIC, serial dilution on nutrient agar", "assay_type": "cell-based", "conditions": "PCI219; Bacillus subtilis PCI 219; nutrient agar, 37°C, 18 hours; read-out: Minimum Inhibitory Concentrations"}, "[31]": {"system": "Escherichia coli JR66/W677", "assay": "MIC, serial dilution on nutrient agar", "assay_type": "cell-based", "conditions": "Escherichia coli, JR66/W677, 18 h, read-out: Minimum Inhibitory Concentrations"}, "[32]": {"system": "Shigella sonnei JS 11746", "assay": "MIC, serial dilution on nutrient agar", "assay_type": "cell-based", "conditions": "JS11746, 37°C, 18 hours, read-out: Minimum Inhibitory Concentrations", "experimental": "(§1) The minimum inhibitory concentrations (mcg/ml) of 1,2'-di-N-[(S)-4-amino-2-hydroxybutyryl]-kanamycin B (abbreviated as 1,2'-AHB-KMB), 1,2'-di-N-[(S)-4-amino-2-hydroxybutyryl]-3',4'-dideoxykanamycin B (abbreviated as 1,2'-AHB-DKB), 1,2'-di-N-DL-isoseryl-3',4'-dideoxykanamycin B (abbreviated as 1,2'-IS-DKB) and 1,2'-di-N-DL-isoseryl-kanamycin B (abbreviated as 1,2'-IS-KMB) against various microorganisms were determined according to serial dilution method using nutrient agar medium at 37°C, the estimation being effected after 18 hours incubation. For comparison, the minimum inhibitory concentrations of kanamycin B (abbreviated as KMB) and 3',4'-dideoxykanamycin B (abbreviated as DKB) were also determined in the same manner as mentioned above."}, "[33]": {"system": "Escherichia coli K-12 ML 1630", "assay": "MIC, serial dilution on nutrient agar", "assay_type": "cell-based", "conditions": "K12ML1630, 37°C, 18 hours, read-out: Minimum Inhibitory Concentrations", "experimental": "as §1"}, "[34]": {"system": "Shigella flexneri 4b JS 11811", "assay": "MIC, serial dilution on nutrient agar", "assay_type": "cell-based", "conditions": "4BJS11811, 37°C, 18 hours, read-out: Minimum Inhibitory Concentrations", "experimental": "as §1"}, "[35]": {"system": "gram-negative and gram-positive bacteria sensitive to the kanamycins", "conditions": "cited from earlier work"}, "[36]": {"system": "drug-resistant bacteria", "conditions": "cited from earlier work"}},
  "data": [
    {"smiles": "NCC[C@H](O)C(=O)N[C@H]1[C@@H](O[C@H]2[C@H](O)[C@@H](O[C@H]3O[C@H](CO)[C@@H](O)[C@H](N)[C@H]3O)[C@H](NC(=O)[C@@H](O)CCN)C[C@@H]2N)O[C@H](CN)[C@@H](O)[C@@H]1O", "note": "[1,2'-AHB-KMB, 1,2'-di-N-[(S)-4-amino-2-hydroxybutyryl]-kanamycin B]", "values": [
      {"measurement": "MIC", "setting": "[1]", "result": 0.78, "unit": "µg/mL"},
      {"measurement": "MIC", "setting": "[2]", "result": 3.13, "unit": "µg/mL"},
      {"measurement": "MIC", "setting": "[3]", "result": 25, "unit": "µg/mL"},
      {"measurement": "MIC", "setting": "[4]", "result": 1.56, "unit": "µg/mL"},
      {"measurement": "MIC", "setting": "[5]", "result": 1.56, "unit": "µg/mL"},
      {"measurement": "MIC", "setting": "[6]", "result": 12.5, "unit": "µg/mL"},
      {"measurement": "MIC", "setting": "[7]", "result": 12.5, "unit": "µg/mL"},
      {"measurement": "MIC", "setting": "[8]", "result": 3.13, "unit": "µg/mL"},
      {"measurement": "MIC", "setting": "[9]", "result": 3.13, "unit": "µg/mL"},
      {"measurement": "MIC", "setting": "[10]", "result": 3.13, "unit": "µg/mL"},
      {"measurement": "MIC", "setting": "[11]", "result": 6.25, "unit": "µg/mL"},
      {"measurement": "MIC", "setting": "[12]", "result": 50, "unit": "µg/mL"},
      {"measurement": "MIC", "setting": "[13]", "result": 6.25, "unit": "µg/mL"},
      {"measurement": "MIC", "setting": "[14]", "result": "< 0.2", "unit": "µg/mL"},
      {"measurement": "MIC", "setting": "[15]", "result": 12.5, "unit": "µg/mL"},
      {"measurement": "MIC", "setting": "[16]", "result": 1.56, "unit": "µg/mL"},
      {"measurement": "MIC", "setting": "[17]", "result": 3.13, "unit": "µg/mL"},
      {"measurement": "MIC", "setting": "[18]", "result": 3.13, "unit": "µg/mL"},
      {"measurement": "MIC", "setting": "[19]", "result": 0.39, "unit": "µg/mL"},
      {"measurement": "MIC", "setting": "[20]", "result": 6.25, "unit": "µg/mL"},
      {"measurement": "MIC", "setting": "[21]", "result": 3.13, "unit": "µg/mL"},
      {"measurement": "MIC", "setting": "[22]", "result": 6.25, "unit": "µg/mL"},
      {"measurement": "MIC", "setting": "[23]", "result": 0.78, "unit": "µg/mL"},
      {"measurement": "MIC", "setting": "[24]", "result": 3.13, "unit": "µg/mL"},
      {"measurement": "MIC", "setting": "[25]", "result": 0.39, "unit": "µg/mL"},
      {"measurement": "MIC", "setting": "[26]", "result": 3.13, "unit": "µg/mL"},
      {"measurement": "MIC", "setting": "[27]", "result": "> 100", "unit": "µg/mL"},
      {"measurement": "MIC", "setting": "[28]", "result": 3.13, "unit": "µg/mL"},
      {"measurement": "MIC", "setting": "[29]", "result": 25, "unit": "µg/mL"},
      {"measurement": "MIC", "setting": "[30]", "result": "< 0.2", "unit": "µg/mL"},
      {"measurement": "MIC", "setting": "[31]", "result": 6.25, "unit": "µg/mL"},
      {"measurement": "MIC", "setting": "[32]", "result": 6.25, "unit": "µg/mL"},
      {"measurement": "MIC", "setting": "[33]", "result": 3.13, "unit": "µg/mL"},
      {"measurement": "MIC", "setting": "[34]", "result": 12.5, "unit": "µg/mL"}
    ]},
    {"smiles": "NCC(O)C(=O)N[C@@H]1C[C@H](N)[C@@H](O[C@H]2O[C@H](CN)CC[C@H]2N)[C@H](O)[C@H]1O[C@H]1O[C@H](CO)[C@@H](O)[C@H](N)[C@H]1O", "note": "(some centres unmarked) [1-N-isoseryl-3',4'-dideoxykanamycin B]", "values": [
      {"measurement": "effectiveness against bacteria sensitive to the kanamycins", "setting": "[35]", "result": "effective"},
      {"measurement": "antibacterial activity against the drug-resistant bacteria", "setting": "[36]", "result": "effective"}
    ]},
    {"smiles": "NCC(O)C(=O)N[C@@H]1C[C@H](N)[C@@H](O[C@H]2O[C@H](CN)[C@@H](O)[C@H](O)[C@H]2O)[C@H](O)[C@H]1O[C@H]1O[C@H](CO)[C@@H](O)[C@H](N)[C@H]1O", "note": "(some centres unmarked) [1-N-isoserylkanamycin]", "values": [
      {"measurement": "effectiveness against bacteria sensitive to the kanamycins", "setting": "[35]", "result": "effective"},
      {"measurement": "antibacterial activity against the drug-resistant bacteria", "setting": "[36]", "result": "effective"}
    ]}
  ]
}
